Test results from patent US20020137929A1, “1 - (3-heterocyclylphenyl) isothiourea, -isourea, -guanidine and -amidine herbicidal agents” (Intellectual Property Department, BASF Aktiengesellschaft, priority 1998, published 2002).

Legend:
ABUTH (Velvetleaf) [1] = experiment: Postemergence herbicidal evaluation; assay type: in vivo, Abutilon theophrasti; conditions: postemergence
Summary of the method: (§1)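 Herbicidal effect was judged by eye on a 0–9 scale covering stand, vigor, deformity, size and chlorosis, compared with controls, four to five weeks after seedlings about two weeks old were sprayed (40 psi, ~0.0156–0.500 kg/ha).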

[2] = tested on: CHEAL (Lambsquarters, Common); experiment: Postemergence herbicidal evaluation; assay type: in vivo, Chenopodium album; conditions: postemergence
Summary of the method: as §1

[3] = tested on: IPOHE (Morningglory, Ivyleaf); experiment: Postemergence herbicidal evaluation; assay type: in vivo, Ipomoea hederacea; conditions: postemergence
Summary of the method: as §1

ECHCG (Barnyardgrass) [4] = experiment: Postemergence herbicidal evaluation; assay type: in vivo, Echinochloa crus-galli; conditions: postemergence
Summary of the method: as §1

SETVI (Foxtail, Green) = experiment: Postemergence herbicidal evaluation; assay type: in vivo, Setaria viridis; conditions: postemergence
Summary of the method: as §1

ORYSAT (Rice, Tebonnet) = experiment: Postemergence herbicidal evaluation; assay type: in vivo, Oryza sativa, (L.) Tebonnet; conditions: postemergence
Summary of the method: as §1

ZEAMX (Corn, Field) [5] = experiment: Postemergence herbicidal evaluation; assay type: in vivo, Zea mays; conditions: postemergence
Summary of the method: as §1

ABUTH (Velvetleaf) [6] = experiment: Preemergence herbicidal evaluation; assay type: in vivo, Abutilon theophrasti; conditions: rated 4-5 weeks after treatment
Summary of the method: (§2)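 Greenhouse preemergence test: seed-soil mix sown on ~1 inch soil; aqueous acetone spray at equivalent of ~0.0156–0.500 kg/ha; greenhouse-held and watered; scored 0–9 visually at 4–5 weeks.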

CASOB (Sicklepod) = experiment: Preemergence herbicidal evaluation; assay type: in vivo, Cassia obtusifolia; conditions: rated 4-5 weeks after treatment
Summary of the method: as §2

[7] = tested on: CHEAL (Lambsquarters, Common); experiment: Preemergence herbicidal evaluation; assay type: in vivo, Chenopodium album; conditions: rated 4-5 weeks after treatment
Summary of the method: as §2

[8] = tested on: IPOHE (Morningglory, Ivyleaf); experiment: Preemergence herbicidal evaluation; assay type: in vivo, Ipomoea hederacea; conditions: rated 4-5 weeks after treatment
Summary of the method: as §2

ECHCG (Barnyardgrass) [9] = experiment: Preemergence herbicidal evaluation; assay type: in vivo, Echinochloa crus-galli; conditions: rated 4-5 weeks after treatment
Summary of the method: as §2

[10] = tested on: GLXMAW (Soybean, Williams); experiment: Preemergence herbicidal evaluation; assay type: in vivo, Glycine max, (L.) Merr. cv Williams; conditions: rated 4-5 weeks after treatment
Summary of the method: as §2

[11] = tested on: TRZAWR (Wheat, Winter, cv Riband); experiment: Preemergence herbicidal evaluation; assay type: in vivo, Triticum aestivum; conditions: rated 4-5 weeks after treatment
Summary of the method: as §2

ZEAMX (Corn, Field) [12] = experiment: Preemergence herbicidal evaluation; assay type: in vivo, Zea mays; conditions: rated 4-5 weeks after treatment
Summary of the method: as §2

[13] = rate 0.0313 kg/ha, rating scale 0-9
[14] = rate 0.0625 kg/ha, rating scale 0-9
[15] = rate 0.1250 kg/ha, rating scale 0-9
[16] = rate 0.2500 kg/ha, rating scale 0-9

SMILES: CSCCN1C(=O)CSC1=Nc1cc(-n2c(=O)cc(C(F)(F)F)n(C)c2=O)c(F)cc1Cl [Compound 157]
- herbicidal rating ABUTH (ABUTH (Velvetleaf) [1]; rate 0.0156 kg/ha): 7.0
- herbicidal rating ABUTH (ABUTH (Velvetleaf) [1]; rate 0.0313 kg/ha): 9.0
- herbicidal rating ABUTH (ABUTH (Velvetleaf) [1]; rate 0.0625 kg/ha): 9.0
- herbicidal rating CHEAL ([2]; rate 0.0156 kg/ha): 2.0
- herbicidal rating CHEAL ([2]; rate 0.0313 kg/ha): 4.0
- herbicidal rating CHEAL ([2]; rate 0.0625 kg/ha): 9.0
- herbicidal rating IPOHE ([3]; rate 0.0156 kg/ha): 3.0
- herbicidal rating IPOHE ([3]; rate 0.0313 kg/ha): 7.0
- herbicidal rating IPOHE ([3]; rate 0.0625 kg/ha): 6.0
- herbicidal rating ECHCG (ECHCG (Barnyardgrass) [4]; rate 0.0156 kg/ha): 0.0
- herbicidal rating ECHCG (ECHCG (Barnyardgrass) [4]; rate 0.0313 kg/ha): 1.0
- herbicidal rating ECHCG (ECHCG (Barnyardgrass) [4]; rate 0.0625 kg/ha): 2.0
- herbicidal rating SETVI (SETVI (Foxtail, Green); rate 0.0156 kg/ha): 0.0
- herbicidal rating SETVI (SETVI (Foxtail, Green); rate 0.0313 kg/ha): 1.0
- herbicidal rating SETVI (SETVI (Foxtail, Green); rate 0.0625 kg/ha): 7.0
- herbicidal rating ORYSAT (ORYSAT (Rice, Tebonnet); rate 0.0156 kg/ha): 2.0
- herbicidal rating ORYSAT (ORYSAT (Rice, Tebonnet); rate 0.0313 kg/ha): 2.5
- herbicidal rating ORYSAT (ORYSAT (Rice, Tebonnet); rate 0.0625 kg/ha): 3.0
- herbicidal rating ZEAMX (ZEAMX (Corn, Field) [5]; rate 0.0156 kg/ha): 7.0
- herbicidal rating ZEAMX (ZEAMX (Corn, Field) [5]; rate 0.0313 kg/ha): 7.0
- herbicidal rating ZEAMX (ZEAMX (Corn, Field) [5]; rate 0.0625 kg/ha): 7.0
- Preemergence herbicidal rating ABUTH (ABUTH (Velvetleaf) [6]; [13]): 0.0
- Preemergence herbicidal rating ABUTH (ABUTH (Velvetleaf) [6]; [14]): 0.0
- Preemergence herbicidal rating ABUTH (ABUTH (Velvetleaf) [6]; [15]): 4.0
- Preemergence herbicidal rating ABUTH (ABUTH (Velvetleaf) [6]; [16]): 6.0
- Preemergence herbicidal rating CASOB (CASOB (Sicklepod); [13]): 1.0
- Preemergence herbicidal rating CASOB (CASOB (Sicklepod); [14]): 0.0
- Preemergence herbicidal rating CASOB (CASOB (Sicklepod); [15]): 1.0
- Preemergence herbicidal rating CASOB (CASOB (Sicklepod); [16]): 5.0
- Preemergence herbicidal rating CHEAL [7, 13]: 1.0
- Preemergence herbicidal rating CHEAL [7, 14]: 0.0
- Preemergence herbicidal rating CHEAL [7, 15]: 9.0
- Preemergence herbicidal rating CHEAL [7, 16]: 9.0
- Preemergence herbicidal rating IPOHE [8, 13]: 0.0
- Preemergence herbicidal rating IPOHE [8, 14]: 0.0
- Preemergence herbicidal rating IPOHE [8, 15]: 1.0
- Preemergence herbicidal rating IPOHE [8, 16]: 2.0
- Preemergence herbicidal rating ECHCG (ECHCG (Barnyardgrass) [9]; [13]): 0.0
- Preemergence herbicidal rating ECHCG (ECHCG (Barnyardgrass) [9]; [14]): 0.0
- Preemergence herbicidal rating ECHCG (ECHCG (Barnyardgrass) [9]; [15]): 1.0
- Preemergence herbicidal rating ECHCG (ECHCG (Barnyardgrass) [9]; [16]): 0.0
- Preemergence herbicidal rating GLXMAW [10, 13]: 1.0
- Preemergence herbicidal rating GLXMAW [10, 14]: 0.0
- Preemergence herbicidal rating GLXMAW [10, 15]: 2.0
- Preemergence herbicidal rating GLXMAW [10, 16]: 4.0
- Preemergence herbicidal rating TRZAWR [11, 13]: 0.0
- Preemergence herbicidal rating TRZAWR [11, 14]: 0.0
- Preemergence herbicidal rating TRZAWR [11, 15]: 0.0
- Preemergence herbicidal rating TRZAWR [11, 16]: 0.0
- Preemergence herbicidal rating ZEAMX (ZEAMX (Corn, Field) [12]; [13]): 0.0
- Preemergence herbicidal rating ZEAMX (ZEAMX (Corn, Field) [12]; [14]): 0.0
- Preemergence herbicidal rating ZEAMX (ZEAMX (Corn, Field) [12]; [15]): 1.0
- Preemergence herbicidal rating ZEAMX (ZEAMX (Corn, Field) [12]; [16]): 1.0

SMILES: COC(=O)CSCCN1C(=O)CSC1=Nc1cc(-n2c(=O)cc(C(F)(F)F)n(C)c2=O)c(F)cc1Cl [Compound 158, Methyl {{2-{2-{{2-chloro-5-[3,6-dihydro-3-methyl-2,6-dioxo-4-(trifluoromethyl)-1(2H)-pyrimidinyl]-4-fluorophenyl}imino}-4-oxo-3-thiazolidinyl}ethyl}-thio}acetate]
- herbicidal rating ABUTH (ABUTH (Velvetleaf) [1]; rate 0.0156 kg/ha): 9.0
- herbicidal rating ABUTH (ABUTH (Velvetleaf) [1]; rate 0.0313 kg/ha): 9.0
- herbicidal rating ABUTH (ABUTH (Velvetleaf) [1]; rate 0.0625 kg/ha): 9.0
- herbicidal rating CHEAL ([2]; rate 0.0156 kg/ha): 6.0
- herbicidal rating CHEAL ([2]; rate 0.0313 kg/ha): 7.0
- herbicidal rating CHEAL ([2]; rate 0.0625 kg/ha): 9.0
- herbicidal rating IPOHE ([3]; rate 0.0156 kg/ha): 9.0
- herbicidal rating IPOHE ([3]; rate 0.0313 kg/ha): 9.0
- herbicidal rating IPOHE ([3]; rate 0.0625 kg/ha): 9.0
- herbicidal rating ECHCG (ECHCG (Barnyardgrass) [4]; rate 0.0156 kg/ha): 2.0
- herbicidal rating ECHCG (ECHCG (Barnyardgrass) [4]; rate 0.0313 kg/ha): 2.0
- herbicidal rating ECHCG (ECHCG (Barnyardgrass) [4]; rate 0.0625 kg/ha): 3.0
- herbicidal rating SETVI (SETVI (Foxtail, Green); rate 0.0156 kg/ha): 2.0
- herbicidal rating SETVI (SETVI (Foxtail, Green); rate 0.0313 kg/ha): 3.0
- herbicidal rating SETVI (SETVI (Foxtail, Green); rate 0.0625 kg/ha): 9.0
- herbicidal rating ORYSAT (ORYSAT (Rice, Tebonnet); rate 0.0156 kg/ha): 2.0
- herbicidal rating ORYSAT (ORYSAT (Rice, Tebonnet); rate 0.0313 kg/ha): 2.5
- herbicidal rating ORYSAT (ORYSAT (Rice, Tebonnet); rate 0.0625 kg/ha): 3.5
- herbicidal rating ZEAMX (ZEAMX (Corn, Field) [5]; rate 0.0156 kg/ha): 4.0
- herbicidal rating ZEAMX (ZEAMX (Corn, Field) [5]; rate 0.0313 kg/ha): 4.5
- herbicidal rating ZEAMX (ZEAMX (Corn, Field) [5]; rate 0.0625 kg/ha): 5.5
- Preemergence herbicidal rating ABUTH (ABUTH (Velvetleaf) [6]; 0.0156 kg/ha): 9.0
- Preemergence herbicidal rating ABUTH (ABUTH (Velvetleaf) [6]; 0.0313 kg/ha): 9.0
- Preemergence herbicidal rating ABUTH (ABUTH (Velvetleaf) [6]; 0.0625 kg/ha): 9.0
- Preemergence herbicidal rating ABUTH (ABUTH (Velvetleaf) [6]; [15]): 9.0
- Preemergence herbicidal rating ABUTH (ABUTH (Velvetleaf) [6]; [16]): 9.0
- Preemergence herbicidal rating CASOB (CASOB (Sicklepod); 0.0156 kg/ha): 1.0
- Preemergence herbicidal rating CASOB (CASOB (Sicklepod); 0.0313 kg/ha): 3.0
- Preemergence herbicidal rating CASOB (CASOB (Sicklepod); 0.0625 kg/ha): 4.0
- Preemergence herbicidal rating CASOB (CASOB (Sicklepod); [15]): 9.0
- Preemergence herbicidal rating CASOB (CASOB (Sicklepod); [16]): 5.0
- Preemergence herbicidal rating CHEAL ([7]; 0.0156 kg/ha): 9.0
- Preemergence herbicidal rating CHEAL ([7]; 0.0313 kg/ha): 9.0
- Preemergence herbicidal rating CHEAL ([7]; 0.0625 kg/ha): 9.0
- Preemergence herbicidal rating CHEAL [7, 15]: 9.0
- Preemergence herbicidal rating CHEAL [7, 16]: 9.0
- Preemergence herbicidal rating IPOHE ([8]; 0.0156 kg/ha): 1.0
- Preemergence herbicidal rating IPOHE ([8]; 0.0313 kg/ha): 4.0
- Preemergence herbicidal rating IPOHE ([8]; 0.0625 kg/ha): 7.0
- Preemergence herbicidal rating IPOHE [8, 15]: 9.0
- Preemergence herbicidal rating IPOHE [8, 16]: 9.0
- Preemergence herbicidal rating ECHCG (ECHCG (Barnyardgrass) [9]; 0.0156 kg/ha): 2.0
- Preemergence herbicidal rating ECHCG (ECHCG (Barnyardgrass) [9]; 0.0313 kg/ha): 7.0
- Preemergence herbicidal rating ECHCG (ECHCG (Barnyardgrass) [9]; 0.0625 kg/ha): 9.0
- Preemergence herbicidal rating ECHCG (ECHCG (Barnyardgrass) [9]; [15]): 9.0
- Preemergence herbicidal rating ECHCG (ECHCG (Barnyardgrass) [9]; [16]): 9.0
- Preemergence herbicidal rating GLXMAW ([10]; 0.0156 kg/ha): 1.0
- Preemergence herbicidal rating GLXMAW ([10]; 0.0313 kg/ha): 4.0
- Preemergence herbicidal rating GLXMAW ([10]; 0.0625 kg/ha): 6.0
- Preemergence herbicidal rating GLXMAW [10, 15]: 7.0
- Preemergence herbicidal rating GLXMAW [10, 16]: 9.0
- Preemergence herbicidal rating TRZAWR ([11]; 0.0156 kg/ha): 1.0
- Preemergence herbicidal rating TRZAWR ([11]; 0.0313 kg/ha): 4.0
- Preemergence herbicidal rating TRZAWR ([11]; 0.0625 kg/ha): 5.0
- Preemergence herbicidal rating TRZAWR [11, 15]: 7.0
- Preemergence herbicidal rating TRZAWR [11, 16]: 7.0
- Preemergence herbicidal rating ZEAMX (ZEAMX (Corn, Field) [12]; 0.0156 kg/ha): 5.0
- Preemergence herbicidal rating ZEAMX (ZEAMX (Corn, Field) [12]; 0.0313 kg/ha): 7.0
- Preemergence herbicidal rating ZEAMX (ZEAMX (Corn, Field) [12]; 0.0625 kg/ha): 8.0
- Preemergence herbicidal rating ZEAMX (ZEAMX (Corn, Field) [12]; [15]): 9.0
- Preemergence herbicidal rating ZEAMX (ZEAMX (Corn, Field) [12]; [16]): 9.0
